# According to patent US20100047762A1, “METHOD TO MONITOR DRUG EFFICACY IN DIABETIC PATIENTS USING AN ASSAY FOR 1,5-ANHYDRO-D-GLUCITOL” (NIPPON KAYAKU KABUSHIKI KAISHA, priority 2007, published 2010):
# Legend:
# [1] = test system: patients with type I diabetes (T1DM); assay: Post-hoc analysis of randomized, double-blind, placebo-controlled study of pramlintide in T1DM subjects on intensive insulin therapy (baseline HbA1c≦8%); format: in vivo, human
# Procedure: 1,5-AG was assessed as a marker of post-prandial blood glucose (PPG) control in pramlintide-treated patients with type I diabetes (TIDM). PPG is the glucose that appears in the blood stream and tissues after a meal. PPG predominates in the serum over average fasting glucose at HbA1c's less than 8.5%. Antihyperglycemic drugs affect PPG.
# Post-hoc analysis of a randomized, double-blind, placebo-controlled study of a subset of subjects with T1DM on intensive insulin therapy with a baseline HbA1c≦8% (N=37, age 40±12 y; HbA1c 7.5±0.3%; weight 85.9±20.8 kg; mean±SD) treated with pramlintide (30/60 μg) or placebo with major meals.
# • HbA1c, weight, and insulin dose measured at scheduled visits • Pre-prandial and post-prandial self-monitored blood glucose (SMBG) daily • Plasma 1,5-AG (GlycoMark assay) measured at baseline and week 29
# • All evaluable subjects with a baseline HbA1c≦8% and 1,5-AG measured at baseline and week 29 • Mean (±SE) change from baseline HbA1c, body weight, PPG, insulin use and 1,5-AG at week 29 • A repeated measures analysis across all study visits was performed comparing pramlintide and placebo groups
# [2] = following a meal; cited from earlier work
smiles,measurement,setting,value
"CC[C@H](C)[C@H](NC(=O)[C@@H]1CCCN1C(=O)CNC(=O)[C@H](Cc1ccccc1)NC(=O)[C@H](CC(N)=O)NC(=O)[C@H](CC(N)=O)NC(=O)[C@H](CO)NC(=O)[C@H](CO)NC(=O)[C@H](Cc1c[nH]cn1)NC(=O)[C@@H](NC(=O)[C@H](CC(C)C)NC(=O)[C@H](Cc1ccccc1)NC(=O)[C@H](CC(N)=O)NC(=O)[C@H](C)NC(=O)[C@H](CC(C)C)NC(=O)[C@H](CCCNC(=N)N)NC(=O)[C@H](CCC(N)=O)NC(=O)[C@@H](NC(=O)[C@H](C)NC(=O)[C@@H]1CSSC[C@H](NC(=O)[C@@H](N)CCCCN)C(=O)N[C@@H](CC(N)=O)C(=O)N[C@@H]([C@@H](C)O)C(=O)N[C@@H](C)C(=O)N[C@@H]([C@@H](C)O)C(=O)N1)[C@@H](C)O)C(C)C)C(=O)N[C@@H](CC(C)C)C(=O)N1CCC[C@H]1C(=O)N1CCC[C@H]1C(=O)N[C@H](C(=O)N[C@@H](CC(N)=O)C(=O)N[C@H](C(=O)NCC(=O)N[C@@H](CO)C(=O)N[C@@H](CC(N)=O)C(=O)N[C@H](C(=O)N[C@@H](Cc1ccc(O)cc1)C(N)=O)[C@@H](C)O)C(C)C)[C@@H](C)O [Pramlintide, L-Lysyl-L-cysteinyl-L-asparaginyl-L-threonyl-L-alanyl-L-threonyl-L-cysteinyl-L-alanyl-L-threonyl-L-glutaminyl-L-arginyl-L-leucyl-L-alanyl-L-asparaginyl-L-phenylalanyl-L-leucyl-L-valyl-L-histidyl-L-seryl-L-seryl-L-asparaginyl-L-phenylalanyl-glycyl-L-protyl-L-isoleucyl-L-leucyl-L-protyl-L-threonyl-L-asparaginyl-L-valyl-L-glycyl-L-seryl-L-prollneamylin (human) acetate hydrate]","Body Weight, % Change from baseline",[1]; 4 weeks,−0.7%
same,"Body Weight, Mean",[1]; 4 weeks,84.2 kg
same,"HbA1c, % Change from baseline",[1]; 4 weeks,−7.4%
same,"PPG, % Change from baseline",[1]; 4 weeks,−18.9%
same,"PPG, Mean",[1]; 4 weeks,143 mg/dL
same,"HbA1c, Mean","[1]; 4 weeks, n = 18",7.0%
same,"Plasma 1,5-AG, % Change from baseline","[1]; 4 weeks, pramlintide 30/60 μg with major meals",15.9%
same,"Plasma 1,5-AG, Mean","[1]; 4 weeks, pramlintide 30/60 μg with major meals, n = 18",6.4 µg/mL
same,"Body Weight, % Change from baseline",[1]; 16 weeks,−2.8%
same,"Body Weight, Mean",[1]; 16 weeks,82.5 kg
same,"HbA1c, % Change from baseline",[1]; 16 weeks,−7.0%
same,"PPG, % Change from baseline",[1]; 16 weeks,−16.8%
same,"PPG, Mean",[1]; 16 weeks,145 mg/dL
same,"Plasma 1,5-AG, % Change from baseline",[1]; 16 weeks,23.4%
same,"HbA1c, Mean","[1]; 16 weeks, n = 16",7.2%
same,"Plasma 1,5-AG, Mean","[1]; 16 weeks, n = 17",7 µg/mL
same,"Body Weight, % Change from baseline",[1]; 29 weeks,−2.2%
same,"Body Weight, Mean",[1]; 29 weeks,83.0 kg
same,"HbA1c, % Change from baseline",[1]; 29 weeks,−4.5%
same,"PPG, % Change from baseline",[1]; 29 weeks,−27.2%
same,"PPG, Mean",[1]; 29 weeks,135 mg/dL
same,"Plasma 1,5-AG, % Change from baseline",[1]; 29 weeks,29.8%
same,most common adverse event associated with pramlintide use,[1]; 29 weeks of treatment,mild to moderate nausea
same,"HbA1c, Mean","[1]; 29 weeks, n = 18",7.4%
same,"Plasma 1,5-AG, Mean","[1]; 29 weeks, n = 18",6.9 µg/mL
same,"fasting plasma 1,5-AG levels, relative change from baseline","[1]; baseline to wk 29, mean±SE, P<0.01 vs placebo",+30±16%
same,"fasting plasma 1,5-AG levels, absolute change from baseline","[1]; baseline to wk 29, mean±SE, P<0.05 vs placebo",+0.96±0.91 μg/mL
same,mealtime insulin use,"[1]; week 29, pramlintide-treated subjects",significantly decreased
same,"2 hr PPG excursions, change from baseline","[1]; week 29, n=18, mean±SE, P<0.001 vs placebo",-43.9 ± 10.9 mg/dL
same,"body weight, change from baseline","[1]; week 29, n=18, mean±SE, P<0.01 vs placebo",-2.0 ± 1.2 kg
same,"HbA1c, change from baseline","[1]; week 29, n=18, mean±SE, similar to placebo",−0.18±0.31%
same,duration of the slowing of gastric emptying following Pramlintide administration,[2],approximately 3 hours
